Results reported in US20170081331A1, “Pyrazolopyrazines and their use in the treatment, amelioration or prevention of a viral disease” (F. Hoffmann-La Roche AG, priority 2015, published 2017).
pIC50: −log10 of the molar value.

target: T1, influenza A virus (IAV) PA-Nter fragment (amino acids 1-209) (Influenza A virus, UniProt P31343); test: FRET endonuclease activity assay; format: biochemical; settings: PA-Nter 0.5 μM, 1.6 μM RNA substrate; from initial reaction velocities (v0)
T1 construct: PA-Nter fragment (amino acids 1-209); made in house

Compared with CC(C)N1CCn2c(c(O)c(=O)n2Cc2ccccc2)C1=O, CC(C)N1CCn2c(c(O)c(=O)n2CCc2ccccc2)C1=O is 0.21 log units higher in pIC50: 4.91 for the first, 5.12 for the second. The second is the more potent here.

First: CC(C)N1CCn2[nH]c(=O)c(O)c2C1=O
Second: CC(C)N1CC(C)n2c(c(O)c(=O)n2Cc2ccccc2)C1=O (stereo not shown)
The pIC50 of the first is 0.30 log units higher: 5.88 for the first, 5.58 for the second. The first is the more potent here.

target: whole RNP complex of IAV strain A/PR/8/34 (Influenza A virus, UniProt P03433); test: Transcription assay (TA assay), Quantigene detection of de novo viral mRNA; format: biochemical, influenza A virus A/PR/8/34; settings: 80 pM RNPs, 2 nM capped RNA substrate, cell-free; read-out: TA IC50 (unit inferred)

COC(=O)c1nn2c(c1O)C(=O)N(C(C)C)CC2 gave a pIC50 of 4.10.

same assay, conditions: 80 pM RNPs, 2 nM capped RNA substrate, cell-free; read-out: TA assay IC50

Going from CC(C)N1CC(c2ccccc2)n2c(c(O)c(=O)n2Cc2ccccc2)C1=O (stereo not shown) to CC(C)N1CC(Cc2ccccc2)n2nc(C(=O)O)c(O)c2C1=O (stereo not shown), the pIC50 falls from 5.23 to 4.88 (0.35 log units).

Compared with O=C(O)c1nn2c(c1OCc1ccccc1)C(=O)NCC2, O=C(O)c1nn2c(c1O)C(=O)NCC2Cc1ccccc1 (stereo not shown) is 1.82 log units lower in pIC50: 6.27 for the first, 4.45 for the second. The first is the more potent here.

In the case of CN1CC(Cc2ccccc2)n2nc(C(=O)O)c(O)c2C1=O (stereo not shown), the pIC50 was 4.59.
